Results taken from patent publication US9593105B2, “Cyclic amines” (H. Lundbeck A/S, priority 2012, dated 2017).
pIC50: −log10 of the molar value.

Biological target: P2X7 receptor (Homo sapiens (Human), UniProt Q99572)
Assay: P2X7 FLIPR assay (BzATP-stimulated, Fluo-4 fluorescence) in stably transfected 293 HEK cells
Type: cell-based
Protocol: This example illustrates representative assays for use in evaluating the test compounds for antagonist activity. Compounds of the present invention were tested in vitro for their ability to act as antagonists to the P2X7 receptor.
Cells were plated to cell density of approximately 15,000 cells/well in 384-well assay plates (50 μl/well) with 1.5% low serum media (DMEM, 1.5% BCS, 1% L-glut (2 mM), 1% P/S).
Cells were plated to cell density of approximately 15,000 cells/well in 384-well assay plates (50 μl/well) with 1.5% low serum media (DMEM, 1.5% FBS, 1% L-glut (2 mM), 10 mM HEPES, 1% P/S). Cells were plated 24 hours prior to assay. Cells expressing human, rat or mouse P2X7 receptor were assayed in the following manner.
Fluo-4 NW dye mix (Molecular Probes, Inc., Eugene, Oreg., USA) was prepared in buffer (see manufacturer's instructions). Cell plates were removed from the 37° C. incubator, the media discarded and then 30 μL of dye was added to each well. Plates were placed in the 37° C., non-CO2 incubator for 30 minutes and then room temperature for 30 minutes.
Compound mixtures (A) were added to assay plates containing cells and placed at room temperature for 30 minutes, then BzATP (B) was added. Fluorescence was read using the Tetra FLIPR® (Molecular Devices, Inc., Sunnyvale, Calif., USA) and IC50 values were calculated by standard methods to determine antagonist activity.

Chain of P2X7 receptor (Q99572 whole entry): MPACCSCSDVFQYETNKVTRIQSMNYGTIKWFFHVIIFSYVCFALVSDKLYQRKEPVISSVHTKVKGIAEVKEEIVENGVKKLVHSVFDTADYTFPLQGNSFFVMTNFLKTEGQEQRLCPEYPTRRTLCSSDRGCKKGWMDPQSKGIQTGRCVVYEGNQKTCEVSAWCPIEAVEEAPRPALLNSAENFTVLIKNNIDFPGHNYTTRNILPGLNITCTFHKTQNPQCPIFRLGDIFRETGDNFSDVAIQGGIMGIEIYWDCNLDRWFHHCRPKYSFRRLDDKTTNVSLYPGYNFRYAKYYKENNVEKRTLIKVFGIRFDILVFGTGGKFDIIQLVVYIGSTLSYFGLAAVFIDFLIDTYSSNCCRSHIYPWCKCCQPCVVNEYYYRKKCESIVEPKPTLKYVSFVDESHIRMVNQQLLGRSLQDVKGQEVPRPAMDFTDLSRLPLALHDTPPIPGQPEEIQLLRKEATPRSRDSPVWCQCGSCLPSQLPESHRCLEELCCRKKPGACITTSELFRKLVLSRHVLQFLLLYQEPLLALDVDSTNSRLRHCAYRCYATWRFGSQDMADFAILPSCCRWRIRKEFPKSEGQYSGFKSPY

SMILES | pIC50
O=C(NCC(c1cnc(C2CC2)nc1)N1CCC(F)(F)CC1)c1c(Cl)cccc1Cl (single isomer, unassigned; (-)) [(−)2,6-dichloro-N-[2-(2-cyclopropylpyrimidin-5-yl)-2-(4,4-di] [(−)2,6-dichloro-N-(2-(2-cyclopropylpyrimidin-5-yl)-2-(4,4-difluoropiperidin-1-yl)ethyl)benzamide] | 8.24
COc1ccc(C(=O)NCC(c2cnc(C(F)(F)F)nc2)N2CCC(F)(F)CC2)c(Cl)c1 (single isomer, unassigned; (+)) [(+)2-chloro-N-[2-(4,4-difluoro-1-piperidyl)-2-[2-(trifluorom] [(+)2-chloro-4-methoxy-N-(2-(4,4-difluoropiperidin-1-yl)-2-(2-(trifluoromethyl)pyrimidin-5-yl)ethyl)benzamide] | 8.37
